#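 A five-concentration, 48-hour dose response in 96-well plates underlies each endpoint, interpolated linearly between surrounding concentrations. The concentration for full growth arrest is given as TGI.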
# Experiments:
# Test in all cases: NCI tumour cell line growth inhibition, 48 h
# [1] = test system: LOX IMVI melanoma
# [2] = test system: SF-539 CNS
# [3] = test system: TK-10 renal
# [4] = test system: SK-MEL-2 melanoma
# [5] = test system: 786-0 renal
# [6] = test system: UACC-62 melanoma
# [7] = test system: EKVX NSCLC
# [8] = test system: UACC-257 melanoma
# [9] = test system: SK-MEL-5 melanoma
# [10] = test system: M19-MEL melanoma
# [11] = test system: A549 NSCLC
# [12] = test system: XF 498 CNS
# [13] = test system: KM12 colon
# [14] = test system: HCT-15 colon
# [15] = test system: NCI-H460 lung
# [16] = test system: RPMI-8226 leukemia
# [17] = test system: OVCAR-3 ovarian
# [18] = test system: OVCAR-8 ovarian
# [19] = test system: MOLT-4 leukemia
# [20] = test system: CCRF-CEM leukemia
# [21] = test system: HL-60(TB) leukemia
# [22] = test system: HOP-92 NSCLC
# [23] = test system: MALME-3M melanoma
# [24] = test system: SF-295 CNS
# [25] = test system: A498 renal
# [26] = test system: HT29 colon
# [27] = test system: HOP-62 NSCLC
# [28] = test system: IGROV1 ovarian
# [29] = test system: DMS 273 small cell lung
# [30] = test system: HCC-2998 colon
# [31] = test system: DLD-1 colon
# [32] = test system: UO-31 renal
# [33] = test system: SF-268 CNS
# [34] = test system: SNB-75 CNS
# [35] = test system: M14 melanoma
# [36] = test system: RXF 393 renal
# [37] = test system: ACHN renal
# [38] = test system: LXFL 529 NSCLC
# [39] = test system: NCI-H226 lung
# [40] = test system: SNB-78 CNS
# [41] = test system: U251 CNS
# [42] = test system: OVCAR-5 ovarian
# [43] = test system: SK-OV-3 ovarian
# [44] = test system: OVCAR-4 ovarian
# [45] = test system: COLO 205 colon
# [46] = test system: CAKI-1 renal
# [47] = test system: SW-620 colon
# [48] = test system: K-562 leukemia
# [49] = test system: SNB-19 CNS
# [50] = test system: NCI-H522 lung
# [51] = test system: SK-MEL-28 melanoma
# [52] = test system: NCI-H23 lung
# [53] = test system: SR leukemia
# [54] = test system: DMS 114 small cell lung
# [55] = test system: SN12C renal
# [56] = test system: KM20L2 colon
# [57] = test system: HCT-116 colon
structure (smiles),measurement,setting,value
COC1=CC(=O)[C@]2(C)[C@H](C1=O)C(C)[C@H]2c1ccc(OC)cc1 (stereo partly specified),TGI,[1],> 100 µM
same,TGI,[2],> 100 µM
same,TGI,[3],> 100 µM
same,TGI,[4],> 100 µM
same,TGI,[5],> 100 µM
same,TGI,[6],> 100 µM
same,TGI,[7],> 100 µM
same,TGI,[8],> 100 µM
same,TGI,[9],> 100 µM
same,TGI,[10],> 100 µM
same,TGI,[11],> 100 µM
same,TGI,[12],> 100 µM
same,TGI,[13],> 100 µM
same,TGI,[14],> 100 µM
same,TGI,[15],> 100 µM
same,TGI,[16],> 100 µM
same,TGI,[17],> 100 µM
same,TGI,[18],> 100 µM
same,TGI,[19],> 100 µM
same,TGI,[20],> 100 µM
same,TGI,[21],> 100 µM
same,TGI,[22],> 100 µM
same,TGI,[23],> 100 µM
same,TGI,[24],> 100 µM
same,TGI,[25],> 100 µM
same,TGI,[26],> 100 µM
same,TGI,[27],> 100 µM
same,TGI,[28],> 100 µM
same,TGI,[29],> 100 µM
same,TGI,[30],> 100 µM
same,TGI,[31],> 100 µM
same,TGI,[32],> 100 µM
same,TGI,[33],> 100 µM
same,TGI,[34],> 100 µM
same,TGI,[35],> 100 µM
same,TGI,[36],> 100 µM
same,TGI,[37],> 100 µM
same,TGI,[38],> 100 µM
same,TGI,[39],> 100 µM
same,TGI,[40],> 100 µM
same,TGI,[41],> 100 µM
same,TGI,[42],> 100 µM
same,TGI,[43],> 100 µM
same,TGI,[44],> 100 µM
same,TGI,[45],> 100 µM
same,TGI,[46],> 100 µM
same,TGI,[47],> 100 µM
same,TGI,[48],> 100 µM
same,TGI,[49],> 100 µM
same,TGI,[50],> 100 µM
same,TGI,[51],> 100 µM
same,TGI,[52],> 100 µM
same,TGI,[53],> 100 µM
COc1cccc(/C=C(\NC(C)=O)c2nc3ccc(Cl)cc3[nH]2)c1,TGI,[2],> 100 µM
same,TGI,[3],> 100 µM
same,TGI,[4],> 100 µM
same,TGI,[5],> 100 µM
same,TGI,[6],> 100 µM
same,TGI,[7],> 100 µM
same,TGI,[9],> 100 µM
same,TGI,[10],> 100 µM
same,TGI,[11],> 100 µM
same,TGI,[12],> 100 µM
same,TGI,[13],> 100 µM
same,TGI,[14],> 100 µM
same,TGI,[17],> 100 µM
same,TGI,[18],> 100 µM
same,TGI,[19],> 100 µM
same,TGI,[54],> 100 µM
same,TGI,[20],> 100 µM
same,TGI,[22],> 100 µM
same,TGI,[23],> 100 µM
same,TGI,[24],> 100 µM
same,TGI,[26],> 100 µM
same,TGI,[28],> 100 µM
same,TGI,[30],> 100 µM
same,TGI,[31],> 100 µM
same,TGI,[32],> 100 µM
same,TGI,[33],> 100 µM
same,TGI,[35],> 100 µM
same,TGI,[36],> 100 µM
same,TGI,[37],> 100 µM
same,TGI,[38],> 100 µM
same,TGI,[40],> 100 µM
same,TGI,[41],> 100 µM
same,TGI,[42],> 100 µM
same,TGI,[43],> 100 µM
same,TGI,[44],> 100 µM
same,TGI,[55],> 100 µM
same,TGI,[45],> 100 µM
same,TGI,[46],> 100 µM
same,TGI,[47],> 100 µM
same,TGI,[48],> 100 µM
same,TGI,[49],> 100 µM
same,TGI,[50],> 100 µM
same,TGI,[51],> 100 µM
same,TGI,[52],> 100 µM
same,TGI,[53],> 100 µM
same,TGI,[56],> 100 µM
COc1ccc(C(=O)O)c(Br)c1OCc1ccccc1,TGI,[1],> 100 µM
same,TGI,[2],> 100 µM
same,TGI,[3],> 100 µM
same,TGI,[4],> 100 µM
same,TGI,[5],> 100 µM
same,TGI,[6],> 100 µM
same,TGI,[7],> 100 µM
same,TGI,[9],> 100 µM
same,TGI,[10],> 100 µM
same,TGI,[11],> 100 µM
same,TGI,[12],> 100 µM
same,TGI,[13],> 100 µM
same,TGI,[14],> 100 µM
same,TGI,[15],> 100 µM
same,TGI,[16],> 100 µM
same,TGI,[17],> 100 µM
same,TGI,[18],> 100 µM
same,TGI,[19],> 100 µM
same,TGI,[54],> 100 µM
same,TGI,[20],> 100 µM
same,TGI,[21],> 100 µM
same,TGI,[22],> 100 µM
same,TGI,[24],> 100 µM
same,TGI,[25],> 100 µM
same,TGI,[26],> 100 µM
same,TGI,[27],> 100 µM
same,TGI,[28],> 100 µM
same,TGI,[29],> 100 µM
same,TGI,[31],> 100 µM
same,TGI,[32],> 100 µM
same,TGI,[57],> 100 µM
same,TGI,[33],> 100 µM
same,TGI,[34],> 100 µM
same,TGI,[35],> 100 µM
same,TGI,[36],> 100 µM
same,TGI,[37],> 100 µM
same,TGI,[38],> 100 µM
same,TGI,[39],> 100 µM
same,TGI,[40],> 100 µM
same,TGI,[41],> 100 µM
same,TGI,[42],> 100 µM
same,TGI,[43],> 100 µM
same,TGI,[44],> 100 µM
same,TGI,[55],> 100 µM
same,TGI,[45],> 100 µM
same,TGI,[47],> 100 µM
same,TGI,[48],> 100 µM
same,TGI,[49],> 100 µM
same,TGI,[50],> 100 µM
same,TGI,[51],> 100 µM
same,TGI,[52],> 100 µM
same,TGI,[56],> 100 µM
CC(c1ccccc1)N1O[C@]12CC[C@@]1(C)C(CCCC13OCCO3)C2 (stereo partly specified),TGI,[1],26.2 µM
same,TGI,[2],> 100 µM
same,TGI,[3],32.2 µM
same,TGI,[5],36.5 µM
same,TGI,[6],35.4 µM
same,TGI,[8],43.4 µM
same,TGI,[9],93.1 µM
same,TGI,[10],51 µM
same,TGI,[11],43 µM
same,TGI,[12],44.3 µM
same,TGI,[13],43.2 µM
same,TGI,[14],46.2 µM
same,TGI,[15],38.1 µM
same,TGI,[16],> 100 µM
same,TGI,[17],34.4 µM
same,TGI,[18],37.2 µM
same,TGI,[54],27.4 µM
same,TGI,[22],23.7 µM
same,TGI,[23],83.9 µM
same,TGI,[24],44.3 µM
same,TGI,[26],44.3 µM
same,TGI,[27],> 100 µM
same,TGI,[28],12.1 µM
same,TGI,[29],36 µM
same,TGI,[30],> 100 µM
same,TGI,[31],32.7 µM
same,TGI,[32],31.9 µM
same,TGI,[57],29.6 µM
same,TGI,[33],> 100 µM
same,TGI,[34],39 µM
same,TGI,[35],32.1 µM
same,TGI,[36],54.5 µM
same,TGI,[37],30.3 µM
same,TGI,[39],> 100 µM
same,TGI,[40],40.9 µM
same,TGI,[41],37.6 µM
same,TGI,[42],> 100 µM
same,TGI,[43],> 100 µM
same,TGI,[44],33.2 µM
same,TGI,[55],75.6 µM
same,TGI,[45],32.5 µM
same,TGI,[46],37.2 µM
same,TGI,[47],34.4 µM
same,TGI,[49],> 100 µM
same,TGI,[50],32 µM
same,TGI,[51],> 100 µM
same,TGI,[52],> 100 µM
same,TGI,[53],40.4 µM
same,TGI,[56],> 100 µM
COc1ccc(N2C(Cl)C(=O)C2c2c[nH]c3ccccc23)cc1 (stereo unspecified),TGI,[2],> 100 µM
same,TGI,[3],> 100 µM
same,TGI,[4],> 100 µM
same,TGI,[6],> 100 µM
same,TGI,[7],> 100 µM
same,TGI,[8],> 100 µM
same,TGI,[9],> 100 µM
same,TGI,[10],> 100 µM
same,TGI,[11],> 100 µM
same,TGI,[12],> 100 µM
same,TGI,[13],> 100 µM
same,TGI,[15],> 100 µM
same,TGI,[16],> 100 µM
same,TGI,[17],> 100 µM
same,TGI,[18],> 100 µM
same,TGI,[19],> 100 µM
same,TGI,[54],> 100 µM
same,TGI,[20],> 100 µM
same,TGI,[21],> 100 µM
same,TGI,[22],> 100 µM
same,TGI,[23],> 100 µM
same,TGI,[24],> 100 µM
same,TGI,[26],> 100 µM
same,TGI,[27],> 100 µM
same,TGI,[28],> 100 µM
same,TGI,[32],> 100 µM
same,TGI,[57],> 100 µM
same,TGI,[33],> 100 µM
same,TGI,[34],> 100 µM
same,TGI,[35],> 100 µM
same,TGI,[36],> 100 µM
same,TGI,[38],> 100 µM
same,TGI,[41],> 100 µM
same,TGI,[42],> 100 µM
same,TGI,[43],> 100 µM
same,TGI,[44],> 100 µM
same,TGI,[55],> 100 µM
same,TGI,[45],> 100 µM
same,TGI,[47],> 100 µM
same,TGI,[48],> 100 µM
same,TGI,[49],> 100 µM
same,TGI,[50],> 100 µM
same,TGI,[51],> 100 µM
same,TGI,[52],> 100 µM
same,TGI,[53],> 100 µM
same,TGI,[56],> 100 µM
